According to patent US10119972B2, “Reactive labelling compounds and uses thereof” (Academia Sinica, priority 2014, dated 2018):

Legend:
[1] = Fluorescence time course of ligation of 101 with ManNAz; format: physicochemical; details: 101 (30 μM) with ManNAz (30 μM), PBS buffer containing 10% DMSO
Procedure: To probe the SPAAC reaction under the conditions that would be more typical for biomolecule labeling, we investigated the fluorescence response and time course for the reaction of 101 with ManNAz.
(§1) FIG. 16 describes (a) Absorption and Fluorescence emission spectra (λex=330 nm) of 101 (black), 111 (blue) and 112 (red) (45 μM, PBS buffer containing 10% DMSO, pH 7.4). (b) Time course of normalized fluorescence intensity at 435 nm (λex=330 nm) for the ligation reaction of 101 (30 μM) with N-azidoacetylmannosamine (30 μM) in PBS buffer containing 10% DMSO.
A solution of probe 101 (0.075 μmol) and N-azidoacetylmannosamine (0.075 μmol) in a mixture of 10% DMSO in PBS buffer (2.5 mL) was incubated at 37° C. The fluorescence emission intensity at 435 nm upon excitation at 330 nm was monitored in 5 min intervals. For each point the fluorescence intensity was measured over a period of 5 sec and averaged over a total of 3 points. In a control experiment the same conditions were used except that N-acetylmannosamine (0.075 μmol) was added to the solution.

[2] = SPAAC reaction kinetics of 101 with benzyl azide monitored by 1H-NMR; format: physicochemical; details: 101 with benzyl azide (1:1), 20 mM, CD3CN, 25° C.
Procedure: To evaluate the feasibility of compound 101 as a reagent for the SPAAC-based fluorescence labeling, its reaction scope and kinetics using benzyl azide as a model substrate was first studied. The SPAAC reaction of 101 with benzyl azide in acetonitrile was completed in 2 h at room temperature to give triazole 111 in 95% yield (Scheme 100). The reactivity of 101 with benzyl azide (1:1) in CD3CN was determined by integration of multiple chemical shifts in the ^1H-NMR spectrum to yield a second-order rate constant of 0.012 M^−1s^−1 at 25° C. We also observed the cycloaddition reaction between 101 and N-azidoacetylmannosamine (ManNAz), proceeding similarly to give triazole 112 with a second-order rate constant of 0.010 M^−1s^−1 at 25° C. in a solution of CD3OD-D2O (5:1, v/v) (FIGS. 17 and 18).
Part A: Compound 101 and benzyl azide were predissolved in CD3CN, and then mixed at equimolar concentration of 20 mM. The reaction was monitored by ^1H-NMR analysis over a period of 1 h. The concentration of each component was determined, based on the concentration of initial compound 101, by integration at multiple chemical shifts in the ^1H-NMR spectrum. […] (M^−1) vs. time (sec), a second order rate constant in unit of M^−1s^−1 was determined using linear regression analysis. […]
FIG. 17 describes a Plot of 1/[101] vs. time for the reaction of compound 101 and benzyl azide in CD3CN as monitored by ^1H-NMR.

[3] = Absorption and fluorescence spectroscopy under simulated physiological conditions; format: physicochemical; details: PBS buffer containing 10% DMSO, pH 7.4
Procedure: Formation of triazoles 111 and 112 were accompanied by a significant increase in fluorescence intensity with a large Stokes shift into a standard range for coumarin emission (FIG. 16a).
as §1

CL1-5 cells = assay: Dual fluorescence labeling in cells (SPAAC with CuAAC), confocal microscopy; format: cell-based; details: CL1-5 cells with Ac4ManNAl and Ac4GlcNAz; 100 μM coumOCT, 0.1 μM AzBOCEt
Procedure: A dual-labeling experiment was performed using SPAAC in combination with CuAAC for the concurrent fluorescence labeling of two different metabolically incorporated glycoconjugates. Peracetylated N-acetylmannosamine (Ac4ManNAc) and peracetylated N-acetylglucosamine (Ac4GlcNAc) were employed as the control sugars. ManNAc is converted metabolically to sialic acid that is found as a terminal monosaccharide of glycoproteins and glycolipids in cell, whereas GlcNAz is an internal monosaccharide that abundant in the N- and O-linked glycans produced in the endoplasmic reticulum and Golgi. CL1-5 cells were incubated in the presence of both alkyne-containing sugar (Ac4ManNAl) and azido-containing sugar (Ac4GlcNAz) for three days. The cells were stained by SPAAC with coumOCT (for azido sugars), followed by CuAAC with AzBOCEt^6j (for alkynyl sugars), and investigated by confocal microscopy (FIG. 24).
(A) Illustration of the cell labeling experiments using Ac4ManNAl, Ac4GlcNAz, 101 and AzBOCEt. CL1-5 cells were incubated with 100 μM of Ac4ManNAl and Ac4GlcNAz or control sugars (Ac4ManNAc and Ac4GlcNAc) for 3 days, which were treated with 100 μM of probe 101 for 0.5 h under SPAAC conditions, and then incubated with 0.1 μM of AzBOCEt for 1 h under CuAAC conditions. (B) Dual fluorescence imaging in CL1-5 cells. […]

O=c1ccc2cc3c(cc2o1)C#CCCCC3 [Compound 101, 6,7,8,9-Tetrahydro-10,11-didehydro-cycloocta[g]chromen-2(2H)-one]
time for fluorescence intensity to reach a plateau ([1]; 435 nm (λex=330 nm)): less than 1 h
ManNAz consumed ([1]; in 40 min): more than 90%
second-order rate constant [2]: 0.012 M⁻¹ s⁻¹
Absorption (λmax, nm) [3]: 336 nm
Stokes shift [3]: 5070 cm⁻¹
Emission (λmax, nm) ([3]; excitation at 330 nm): 405 nm
ε (M^−1cm^−1), extinction coefficient ([3]; measured at 340 nm): 7800 M⁻¹ cm⁻¹
Φf, fluorescence quantum yield ([3]; quinine sulfate (Φf = 0.54 ± 0.03) as standard): 0.011
localization of labeled glycoconjugates (CL1-5 cells): shown only in the cytosol
